Laboratory results reported in US7045532B2 (Millennium Pharmaceuticals, Inc., priority 1999, dated 2006).
Where two headings read alike, the source gives them in different places.

Tests used:
Carboxypeptidase A = target: T1, Carboxypeptidase A (Bos taurus, UniProt P00730); experiment: Carboxypeptidase A activity assay; type: biochemical; conditions: Ki class, compounds tested in 5% DMSO
T1 sequence (P00730 111-419): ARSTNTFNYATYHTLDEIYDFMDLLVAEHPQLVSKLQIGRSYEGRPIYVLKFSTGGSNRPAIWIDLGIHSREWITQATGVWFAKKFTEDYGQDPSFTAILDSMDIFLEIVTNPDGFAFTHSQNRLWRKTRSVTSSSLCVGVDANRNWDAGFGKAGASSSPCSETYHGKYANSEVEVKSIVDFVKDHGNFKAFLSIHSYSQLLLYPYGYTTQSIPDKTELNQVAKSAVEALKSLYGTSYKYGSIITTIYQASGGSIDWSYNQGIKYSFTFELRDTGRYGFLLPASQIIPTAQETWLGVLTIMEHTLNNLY
Procedure: Carboxypeptidase A activity was measured using a literature assay (Holmquist and Riordan, “Carboxypeptidase A,” Methods of Enzymatic Analysis (1984) p. 44–60). The assay was adapted to a 96 well format by adjusting to a 300 μL assay volume and using ultra-thin bottom plates (Costar/Corning) read at 328 nm. The assay was stopped using EDTA.
The activity of the test compounds was investigated using the procedure outlined above. The compounds were tested in 5% DMSO. Enzyme activity was measured at 12 compound concentrations. The Ki was calculated by using Ki=Kiapp/(1+[S]/Km).
To determine whether a test compound is capable of modulating carboxypeptidase A's ability to cleave a substrate the method described in Holmquist and Riordan, Carboxypeptidase A, p44–60, Peptidase and Their Inhibitors in Method of Enzymatic Analysis (1984), may be used.
The assay may be adapted to a 96 well format by adjusting to a 300 μl assay volume and using ultrathin bottom plates (Costar/Coming) read at 328 nm with a final assay volume of 300 μl. The assay may be stopped using EDTA.

ACE-2 = target: T2, ACE-2 (Homo sapiens, UniProt Q9BYF1); experiment: ACE-2 Competitive Substrate Assay (ACS Assay); type: biochemical
T2 construct: a stop codon inserted after the serine immediately preceding the transmembrane domain; made in house; host or cells: CHO K1 cells (transient transfection, purified from conditioned medium)
T2 sequence (Q9BYF1 18-740 limits assumed): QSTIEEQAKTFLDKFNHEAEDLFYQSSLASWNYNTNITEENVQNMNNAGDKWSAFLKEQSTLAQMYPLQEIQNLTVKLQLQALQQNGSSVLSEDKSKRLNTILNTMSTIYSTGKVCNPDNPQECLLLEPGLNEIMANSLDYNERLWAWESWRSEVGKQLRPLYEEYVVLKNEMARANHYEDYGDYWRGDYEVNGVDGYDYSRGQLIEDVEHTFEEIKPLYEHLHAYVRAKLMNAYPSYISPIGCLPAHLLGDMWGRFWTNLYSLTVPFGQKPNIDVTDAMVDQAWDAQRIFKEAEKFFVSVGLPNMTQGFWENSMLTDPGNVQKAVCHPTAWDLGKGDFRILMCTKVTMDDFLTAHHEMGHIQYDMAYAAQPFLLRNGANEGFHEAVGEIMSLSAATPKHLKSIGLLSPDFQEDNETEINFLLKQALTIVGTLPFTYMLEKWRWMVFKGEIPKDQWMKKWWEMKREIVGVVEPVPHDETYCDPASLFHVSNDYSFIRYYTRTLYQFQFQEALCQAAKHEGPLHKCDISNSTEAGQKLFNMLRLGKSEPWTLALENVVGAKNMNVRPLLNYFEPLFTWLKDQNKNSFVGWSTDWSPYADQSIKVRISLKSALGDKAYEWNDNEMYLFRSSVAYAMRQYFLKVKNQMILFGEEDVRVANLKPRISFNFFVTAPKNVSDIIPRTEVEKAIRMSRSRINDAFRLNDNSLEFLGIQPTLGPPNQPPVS

ACE (Sigma, A2580) = target: T3, ACE (Sigma, A2580) (Sus scrofa, UniProt F1RRW5); experiment: ACE enzymatic activity assay; type: biochemical, porcine; conditions: Ki class, compounds tested in 5% DMSO
T3 construct: ACE from porcine kidney; purchased Sigma A2580; host or cells: porcine kidney
T3 sequence (F1RRW5 34-1309): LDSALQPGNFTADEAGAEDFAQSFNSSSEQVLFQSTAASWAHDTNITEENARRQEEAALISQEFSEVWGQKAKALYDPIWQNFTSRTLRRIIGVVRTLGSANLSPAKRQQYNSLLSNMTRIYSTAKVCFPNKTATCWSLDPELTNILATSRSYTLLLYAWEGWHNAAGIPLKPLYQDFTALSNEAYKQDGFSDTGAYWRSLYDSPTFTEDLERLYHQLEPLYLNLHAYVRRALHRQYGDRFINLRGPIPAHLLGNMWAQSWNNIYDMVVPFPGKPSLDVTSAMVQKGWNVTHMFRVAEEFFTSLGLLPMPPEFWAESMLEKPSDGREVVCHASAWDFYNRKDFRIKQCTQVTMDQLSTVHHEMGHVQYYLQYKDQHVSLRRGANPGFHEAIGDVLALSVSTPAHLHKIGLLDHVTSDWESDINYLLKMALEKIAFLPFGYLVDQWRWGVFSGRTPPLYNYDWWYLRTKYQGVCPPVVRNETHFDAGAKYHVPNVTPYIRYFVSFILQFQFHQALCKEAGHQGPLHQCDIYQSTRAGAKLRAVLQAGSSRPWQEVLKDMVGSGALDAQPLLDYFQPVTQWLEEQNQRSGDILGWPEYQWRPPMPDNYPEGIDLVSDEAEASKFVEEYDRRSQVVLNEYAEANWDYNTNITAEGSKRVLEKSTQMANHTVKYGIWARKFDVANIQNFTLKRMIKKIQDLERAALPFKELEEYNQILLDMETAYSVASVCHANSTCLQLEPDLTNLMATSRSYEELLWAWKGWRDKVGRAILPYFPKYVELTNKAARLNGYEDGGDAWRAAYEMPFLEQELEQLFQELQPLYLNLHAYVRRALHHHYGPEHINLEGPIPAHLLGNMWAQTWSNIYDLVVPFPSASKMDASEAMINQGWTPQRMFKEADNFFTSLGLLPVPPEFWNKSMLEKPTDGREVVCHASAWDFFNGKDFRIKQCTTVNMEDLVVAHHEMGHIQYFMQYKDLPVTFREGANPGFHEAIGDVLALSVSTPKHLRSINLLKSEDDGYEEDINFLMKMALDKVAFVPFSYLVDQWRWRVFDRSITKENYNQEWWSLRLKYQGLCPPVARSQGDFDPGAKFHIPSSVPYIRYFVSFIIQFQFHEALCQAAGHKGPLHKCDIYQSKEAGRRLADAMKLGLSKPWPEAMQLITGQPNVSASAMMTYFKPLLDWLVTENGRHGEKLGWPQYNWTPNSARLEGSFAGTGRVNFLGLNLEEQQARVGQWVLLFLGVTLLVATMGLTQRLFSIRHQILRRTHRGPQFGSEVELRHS
Procedure: ACE (Sigma, A2580) enzymatic activity was assayed in microtiter plates using the following protocol. ACE assay buffer was made from 50 mM HEPES (Sigma), 300 mM sodium chloride (Sigma), and 0.01% Brij-35 (Pierce Chemical Co) at pH 7.5.
Reactions were mixed and incubated at 25° C. Enzymatic cleavage of the substrate is marked by a fluorescence change (excitation 330 nm, emission 415 nm).
The activity of the test compounds was investigated using the procedure outlined above. The compounds were tested in 5% DMSO. Enzyme activity was measured at 12 compound concentrations. […]. […]

[1] = Ki class, compounds tested in 5% DMSO, 12 concentrations, read-out: Human ACE-2 Activity

Ki (Carboxypeptidase A; 12 concentrations)	Ki (ACE-2; [1])	Ki (ACE (Sigma, A2580); 12 concentrations)	Ki (Carboxypeptidase A; 12 compound concentrations)	Ki (ACE-2; Ki class, compounds tested in 5% DMSO, 12 compound concentrations, Ki=Kiapp/(1+[S]/Km), read-out: Human ACE-2 Activity)	Ki (ACE-2; Table 3, very good ACE-2 inhibiting compounds, species not given, read-out: ACE-2 Activity, Ki)	Ki (ACE (Sigma, A2580); 12 compound concentrations)	Compound
> 50 µM	> 0.5 µM	> 50 µM	–	–	–	–	CC(C)CC(N[C@H](CCc1ccccc1)CC(=O)O)C(=O)O (stereo partly drawn) [CI, 2-(1-Carboxymethyl-3-phenyl-propylamino)-4-methyl-pentanoic acid]
> 50 µM	> 0.5 µM	> 50 µM	–	–	–	–	CC(C)C[C@@H](C(=O)O)N(C)C(CCc1ccccc1)C(=O)O (stereo partly drawn) [V, 2-[(1-Carboxy-3-phenyl-propyl)-methyl-amino]-4-methyl-pentanoic acid]
> 50 µM	> 0.5 µM	> 50 µM	–	–	–	–	CC(C)CC(N[C@@H](Cc1cncn1COCc1ccccc1)C(=O)NCCc1ccccc1)C(=O)O (single isomer, unassigned) [FM, 2-[2-(3-Benzyloxymethyl-3H-imidazol-4-yl)-1-phenethylcarbamoyl-ethylamino]-4-methyl-pentanoic acid]
> 50 µM	> 0.5 µM	> 50 µM	–	–	–	–	CC(NC(Cc1cccs1)C(=O)O)C(=O)O (stereo not drawn) [AH, 2-(1-Carboxy-ethylamino)-3-thiophen-2-yl-propionic acid]
> 50 µM	> 0.5 µM	> 50 µM	–	–	–	–	CCCC(N[C@@H](CC(C)C)C(=O)O)C(=O)O (stereo in doubt) [AQ, 2-(1-Carboxy-butylamino)-4-methyl-pentanoic acid]
> 50 µM	> 0.5 µM	> 50 µM	–	–	–	–	CC(C)C[C@H](NCc1ccc(C(=O)O)cc1)C(=O)O [CN, 4-[(1-Carboxy-3-methyl-butylamino)-methyl]-benzoic acid]
> 50 µM	> 0.5 µM	> 50 µM	–	–	–	–	CC(C)CC(N[C@@H](Cc1cncn1Cc1ccc(C(=O)O)cc1)C(=O)O)C(=O)O (single isomer, unassigned) [GO, 4-[5-[2-Carboxy-2-(1-carboxy-3-methyl-butylamino)-ethyl]-imidazol-1-ylmethyl]-benzoic acid]
> 50 µM	> 0.5 µM	> 50 µM	–	–	–	–	CSCC[C@H](NC(C)C(=O)O)C(=O)O (stereo partly drawn) [AM, 2-(1-Carboxy-ethylamino)-4-methylsulfanyl-butync acid]
> 50 µM	> 0.5 µM	> 50 µM	–	–	–	–	CC(C)CC(NC(CC(=O)O)c1ccccc1)C(=O)O (stereo not drawn) [CQ, 2-(2-Carboxy-1-phenyl-ethylamino)-4-methyl-pentanoic acid]
> 50 µM	> 0.5 µM	> 50 µM	–	–	–	–	CC(C)C[C@@H](NC(CCc1ccccc1)C(=O)O)C(=O)O (stereo partly drawn) [BH, 2-(1-Carboxy-3-phenyl-propylamino)-4-methyl-pentanoic acid]
> 50 µM	> 0.5 µM	> 50 µM	–	–	–	–	Cc1ccc(C[C@H](CC(=O)O)NC(CC(C)C)C(=O)O)cc1 (stereo partly drawn) [CS, 2-[2-Carboxy-1-(4-methyl-benzyl)-ethylamino]-4-methyl-pentanoic acid]
10 to 50 µM	> 0.5 µM	> 50 µM	–	–	–	–	CC(C)C[C@H](N[C@H](Cc1ccccc1)C(=O)O)C(=O)O [T, 2-(1-Carboxy-2-phenyl-ethylamino)-4-methyl-pentanoic acid]
> 50 µM	> 0.5 µM	> 50 µM	–	–	–	–	CSCC[C@H](NC(CCc1ccccc1)C(=O)O)C(=O)O (stereo partly drawn) [Y, 2-(1-Carboxy-3-methylsulfanyl-propylamino)-4-phenyl-butync acid]
–	–	–	10 to 50 µM	< 0.1 µM	0.05 to 0.1 µM	10 to 50 µM	CC(C)CC(N[C@@H](Cc1cncn1Cc1ccc(C#N)cc1)C(=O)O)C(=O)O (single isomer, unassigned) [HA, 2-[1-Carboxy-2-[3-(4-cyano-benzyl)-3H-imidazol-4-yl]-ethylamino)4-methyl-pentanoic acid]
> 50 µM	> 0.5 µM	> 50 µM	–	–	–	–	CC(C)C[C@H](NC(C(=O)O)c1ccc(C(F)(F)F)cc1)C(=O)O (stereo in doubt) [AR, 2-{[Carboxy-(4-trifluoromethyl-phenyl)-methyl]-amino}-4-methyl-pentanoic acid]
10 to 50 µM	–	> 50 µM	–	–	–	–	CC(C)CC(NC(Cc1cncn1Cc1cccc([N+](=O)[O-])c1)C(=O)O)C(=O)O (stereo not drawn) [GA]
